Test results: patent EP0622358A1, “Phenylglycinamides of 4-imidazolylmethyl-phenyl-acetic acids and their use against hypertension and atherosclerosis” (BAYER AG, priority 1993, dated 1994)

System: glatte Muskelzellen
Test: Inhibition of proliferation of smooth muscle cells (3H-thymidine incorporation)
Assay type: cell-based, Ratten
Conditions: half-maximal inhibition of thymidine incorporation induced by 10% FCS; rat aortic smooth muscle cells; read-out: IC₅₀
Description: Untersuchung zur Inhibition der Proliferation glatter Muskelzellen durch die erfindungsgemäßen Verbindungen
Zur Feststellung der antiproliferativen Wirkung der Verbindungen werden glatte Muskelzellen verwendet, die aus den Aorten von Ratten durch die Media-Explantat-Technik gewonnen werden [R. Ross, J. Cell. Biol. 50, 172, 1971]. Die Zellen werden in geeigneten Kulturschalen, in der Regel 96-Loch-Platten, ausgesät und für 2 - 3 Tage in Medium 199 mit 7,5% FCS und 7,5% NCS, 2 mM L-Glutamin und 15 mM HEPES, pH 7,4 in 5% CO₂ bei 37°C kultiviert. Danach werden die Zellen durch Serumentzug für 2 - 3 Tage synchronisiert und sodann mit Serum zum Wachstum angeregt. Gleichzeitig werden Testverbindungen zugesetzt. Nach 16 - 20 Stunden wird 1 µCi ³H-Thymidin zugefügt und nach weiteren 4 Stunden der Einbau dieser Substanz in die TCA-präzipitierbare DNA der Zellen bestimmt Zur Bestimmung der IC₅₀₋Werte wird die Wirkstoffkonzentration errechnet, die bei sequentieller Verdünnung des Wirkstoffes halbmaximale Hemmung der durch 10% FCS hervorgerufene Thymidininkorporation bewirkt. Tabelle B

| Compound | IC50 [nM] |
| --- | --- |
| CCCCc1nc(Cl)c(CO)n1Cc1ccc(C(C(=O)NC(C(N)=O)c2ccccc2)C2CCCC2)cc1 (centres unmarked) [Beispiel 6, 2-{2-[4-(2-Butyl-4-chlor-5-hydroxymethyl-imidazol-1-yl-methyl)phenyl]-2-cyclopentyl}acetamido-2-phenyl-acetamid] | 0.2 |
| CCCCc1nc(Cl)c(C=O)n1Cc1ccc(C(C(=O)NC(C(N)=O)c2ccccc2)C2CCCC2)cc1 (centres unmarked) [Beispiel 1, 2-{2-[4-(2-Butyl-4-chlor-5-formyl-imidazol-1-yl-methyl)phenyl]-2-cyclopentyl}-acetamido-2-phenyl-acetamid] | 1 |
